Patent US20240043435A1, “TYK-2 INHIBITOR” (BEIGENE, LTD., priority 2020, published 2024)

Experiments:
[1] = tested on: JAK2, TYK2/p-STAT4 (Tyr693) activated by IL-12 in NK-92 cell line; assay: IL-12-JAK2, TYK2/p-STAT4 (Tyr693) inhibition IC50 cellular assay; assay type: cell-based; settings: for Selectivity fold (TYK2/JAK2): Cellular assay, pSTAT5/GM-CSF IC50 vs pSTAT4/IL-12 IC50; for IC50: NK92, Cellular assay, read-out: pSTAT4/IL-12 IC50
How it was run: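 NK-92 cells were starved overnight without IL-2 and preincubated 1 h at 37° C with compound (8 doses, 10000–0.61 nM, 4-fold, 0.2% DMSO). They were then stimulated with IL-12 (40 ng/ml final) for 30 min. Lysate p-STAT4 (Tyr693) was read by AlphaLISA SureFire; IC50 from four-parameter logistic fit.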

[2] = tested on: pSTAT5/GM-CSF; assay: pSTAT5/GM-CSF cellular assay (JAK2 selectivity); assay type: cell-based
[3] = biological target: T1, TYK2-JH2 (aa 575-869, in-house) protein (Homo sapiens, UniProt P29597); assay: TYK2-JH2 biochemical assay (HTRF probe displacement); assay type: binding; settings: Biochemical assay; read-out: TYK2-JH2 IC50
T1 construct: TYK2-JH2 (aa 575-869, in-house) protein; made in house
T1 sequence (P29597 575-869): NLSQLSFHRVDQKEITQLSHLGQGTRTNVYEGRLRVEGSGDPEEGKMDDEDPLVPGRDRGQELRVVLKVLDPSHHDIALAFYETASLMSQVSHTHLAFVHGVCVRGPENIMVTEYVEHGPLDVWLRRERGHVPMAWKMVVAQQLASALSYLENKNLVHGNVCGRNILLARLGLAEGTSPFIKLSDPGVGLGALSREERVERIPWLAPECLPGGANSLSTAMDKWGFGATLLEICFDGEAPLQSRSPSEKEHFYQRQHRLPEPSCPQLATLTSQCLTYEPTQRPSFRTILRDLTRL
How it was run: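 Recombinant TYK2-JH2 (0.2 nM) was pre-incubated 0.5 h at room temperature with compounds (10 doses, 5-fold dilution; 500× DMSO stocks from 500 uM) in 20 mM HEPES pH 7.5, 10 mM MgCl2, 0.005% BSA, 2 mM DTT, 0.015% Brij-35. Probe displacement was read by HTRF (ex337, em620/665 nm); IC50 from four-parameter logistic fit.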

Compound	IC50 [1] [nM]	IC50 [2] [nM]	IC50 [3] [nM]	Selectivity fold (TYK2/JAK2) [1] [fold]
CC(=O)Nc1cc(Nc2cc(OCC3CC3)cc(S(C)(=O)=O)n2)c(-c2ccc(N3C[C@@H](C)O[C@@H](C)C3)cn2)cn1 [Example C5, N-(4′-((4-(cyclopropylmethoxy)-6-(methylsulfonyl)pyridin-2-yl)amino)-5-((cis)-2,6-dimethylmorpholino)-[2,3′-bipyridin]-6′-yl)acetamide]	21.9	> 10000	0.032	>456
CC(=O)Nc1cc(Nc2cc(OCC3CC3)cc(S(C)(=O)=O)c2)c(-c2ccc(N3C[C@@H](C)O[C@@H](C)C3)cn2)cn1 [Example C6, N-(4′-((3-(cyclopropylmethoxy)-5-(methylsulfonyl)phenyl)amino)-5-((cis)-2,6-dimethylmorpholino)-[2,3′-bipyridin]-6′-yl)acetamide]	26	> 10000	0.054	>381
COc1cc(Nc2cc(NC(C)=O)ncc2-c2ccc(N3C[C@@H](C)O[C@@H](C)C3)cn2)nc(S(C)(=O)=O)c1 [Example C9, N-(5-(cis-2,6-dimethylmorpholino)-4′-((4-methoxy-6-(methylsulfonyl)pyridin-2-yl)amino)-[2,3′-bipyridin]-6′-yl)acetamide]	0.672	> 10000	0.027	>14880
[2H]C([2H])([2H])Oc1cc(Nc2cc(NC(C)=O)ncc2-c2ccc(N3C[C@@H](C)O[C@@H](C)C3)cn2)nc(S(C)(=O)=O)c1 [Example C17, N-(5-((cis)-2,6-dimethylmorpholino)-4′-((4-(methoxy-d3)-6-(methylsulfonyl)pyridin-2-yl)amino)-[2,3′-bipyridin]-6′-yl)acetamide]	0.605	> 10000	0.022	>16528
COC(C)c1cc(Nc2cc(NC(C)=O)ncc2-c2ccc(N3C[C@@H](C)O[C@@H](C)C3)cn2)nc(S(C)(=O)=O)c1 (stereo partly drawn) [Example C18, N-(5-(cis-2,6-dimethylmorpholino)-4′-((4-(1-methoxyethyl)-6-(methylsulfonyl)pyridin-2-yl)amino)-[2,3′-bipyridin]-6′-yl)acetamide]	0.639	4870	0.023	7625
CC(=O)Nc1cc(Nc2cc(C3CCOCC3)cc(S(C)(=O)=O)n2)c(-c2ccc(N3C[C@@H](C)O[C@@H](C)C3)cn2)cn1 [Example C21, N-(5-(cis-2,6-dimethylmorpholino)-4′-((6-(methylsulfonyl)-4-(tetrahydro-2H-pyran-4-yl)pyridin-2-yl)amino)-[2,3′-bipyridin]-6′-yl)acetamide]	0.995	> 10000	0.024	>10050
CC(=O)Nc1cc(Nc2cncc(S(C)(=O)=O)n2)c(-c2ccc(N3C[C@@H](C)O[C@@H](C)C3)cn2)cn1 [Example C22, N-(5-(cis-2,6-dimethylmorpholino)-4′-((6-(methylsulfonyl)pyrazin-2-yl)amino)-[2,3′-bipyridin]-6′-yl)acetamide]	0.476	> 10000	0.023	>21008
CC(=O)Nc1cc(Nc2cc(N3CCOC[C@@H]3C)cc(S(C)(=O)=O)n2)c(-c2ccc(N3C[C@@H](C)O[C@@H](C)C3)cn2)cn1 [Example C23, N-(5-(cis-2,6-dimethylmorpholino)-4′-((4-((S)-3-methylmorpholino)-6-(methylsulfon-yl)pyridin-2-yl)amino)-[2,3′-bipyridin]-6′-yl)ace-tamide]	0.63	2600	0.022	4126
COC1CN(c2cc(Nc3cc(NC(C)=O)ncc3-c3ccc(N4C[C@@H](C)O[C@@H](C)C4)cn3)nc(S(C)(=O)=O)c2)C1 [Example C25, N-(5-(cis-2,6-dimethyl-morpholino)-4′-((4-(3-methoxy-azetidin-1-yl)-6-(methylsulfonyl)pyridin-2-yl)amino)-[2,3′-bipyridin]-6′-yl)acetamide]	0.827	1060	0.037	1288

Continued, in another order:

IC50 [1] [nM]	IC50 [2] [nM]	IC50 [3] [nM]	Compound	Selectivity fold (TYK2/JAK2) [1] [fold]
0.251	> 10000	0.047	COCCOc1ccc(-c2cnc(NC(C)=O)cc2Nc2cccc(S(C)(=O)=O)n2)nc1 [Example D1, N-(5-(2-methoxyethoxy)-4′-((6-(methylsulfonyl)pyridin-2-yl)amino)-[2,3′-bipyridin]-6′-yl)acetamide]	>39840
15.6	> 10000	0.038	COCCOc1ccc(-c2cnc(NC(C)=O)cc2Nc2cccc(S(C)(=O)=O)c2)nc1 [Example D2, N-(5-(2-methoxyethoxy)-4′-((3-(methylsulfonyl)phenyl)amino)-[2,3′-bipyridin]-6′-yl)acetamide]	>641
4.8	> 10000	0.08	COCCOc1ccc(-c2cnc(NC(C)=O)cc2Nc2cc(C(F)(F)F)cc(S(C)(=O)=O)c2)nc1 [Example D3, N-(5-(2-methoxyethoxy)-4′-((3-(methylsulfonyl)-5-(trifluoromethyl)phenyl)amino)-[2,3′-bipyridin]-6′-yl)acetamide]	>2083
0.262	> 10000	0.044	COCCOc1ccc(-c2cnc(NC(C)=O)cc2Nc2cc(C)cc(S(C)(=O)=O)n2)nc1 [Example D4, N-(5-(2-methoxyethoxy)-4′-((4-methyl-6-(methylsulfonyl)pyridin-2-yl)amino)-[2,3′-bipyridin]-6′-yl)acetamide]	>38167
0.99	> 10000	0.036	COCCOc1ccc(-c2cnc(NC(C)=O)cc2Nc2cc(OC)cc(S(C)(=O)=O)n2)nc1 [Example D5, N-(4′-((4-methoxy-6-(methylsulfonyl)pyridin-2-yl)amino)-5-(2-methoxyethoxy)-[2,3′-bipyridin]-6′-yl)acetamide]	>10101
0.593	> 10000	0.025	COCCOc1ccc(-c2cnc(NC(C)=O)cc2Nc2cc(OC(C)C)cc(S(C)(=O)=O)n2)nc1 [Example D6, N-(4′-((4-isopropoxy-6-(methylsulfonyl)pyridin-2-yl)amino)-5-(2-methoxyethoxy)-[2,3′-bipyridin]-6′-yl)acetamide]	>16863
0.805	> 10000	0.031	COCCOc1ccc(-c2cnc(NC(C)=O)cc2Nc2cc(OC[C@@H](C)OC)cc(S(C)(=O)=O)n2)nc1 [Example D7, (R)-N-(5-(2-methoxyethoxy)-4′-((4-(2-methoxypropoxy)-6-(methylsulfonyl)pyridin-2-yl)amino)-[2,3′-bipyridin]-6′-yl)acetamide]	>12422
0.443	> 10000	0.036	COCCOc1ccc(-c2cnc(NC(C)=O)cc2Nc2cc(OCCOC)cc(S(C)(=O)=O)n2)nc1 [Example D8, N-(5-(2-methoxyethoxy)-4′-((4-(2-methoxyethoxy)-6-(methylsulfonyl)pyridin-2-yl)amino)-[2,3′-bipyridin]-6′-yl)acetamide]	>22573
0.479	> 10000	0.021	CCOc1cc(Nc2cc(NC(C)=O)ncc2-c2ccc(OCCOC)cn2)nc(S(C)(=O)=O)c1 [Example D9, N-(4′-((4-ethoxy-6-(methylsulfonyl)pyridin-2-yl)amino)-5-(2-methoxyethoxy)-[2,3′-bipyridin]-6′-yl)acetamide]	>20876
12.7	> 10000	0.052	COCCOc1ccc(-c2cnc(NC(C)=O)cc2Nc2cc(OCC3CC3)cc(S(C)(=O)=O)c2)nc1 [Example D10, N-(4′-((3-(cyclopropylmethoxy)-5-(methylsulfonyl)phenyl)amino)-5-(2-methoxyethoxy)-[2,3′-bipyridin]-6′-yl)acetamide]	>789
4.55	> 10000	0.022	COCc1ccc(-c2cnc(NC(C)=O)cc2Nc2cccc(S(C)(=O)=O)c2)nc1 [Example E1, N-(5-(methoxymethyl)-4′-((3-(methylsulfonyl)phenyl)amino)-[2,3′-bipyridin]-6′-yl)acetamide]	>2197
0.325	5810	0.017	COCc1ccc(-c2cnc(NC(C)=O)cc2Nc2cc(C)cc(S(C)(=O)=O)n2)nc1 [Example E2, N-(5-(methoxymethyl)-4′-((4-methyl-6-(methylsulfonyl)pyridin-2-yl)amino)-[2,3′-bipyridin]-6′-yl)acetamide]	17867
0.645	> 10000	0.035	COCc1ccc(-c2cnc(NC(C)=O)cc2Nc2cc(OC[C@@H](C)OC)cc(S(C)(=O)=O)n2)nc1 [Example E3, (R)-N-(5-(methoxymethyl)-4′-((4-(2-methoxypropoxy)-6-(methylsulfonyl)pyridin-2-yl)amino)-[2,3′-bipyridin]-6′-yl)acetamide]	>15503
